This note sets out measurements from ChEMBL document CHEMBL5678810.

The target of assay [1] is Phosphatidylinositol 5-phosphate 4-kinase type-2 gamma (Homo sapiens) (UniProt Q8TBX8). As to the kind of experiment: Inhibition of PIP4K2C ATP labeling site harboring TLVIkEVSSEDIADMHSNLSNYHQYIVK in human PC-3 cell lysate at 10 uM by KiNativ profiling analysis relative to control. The format is subcellular.
In assay [2] the target is Fibroblast growth factor receptor 4 (Homo sapiens) (UniProt P22455). As to the kind of experiment: Inhibition of T7 bacteriophage fused human FGFR4 at 10 uM by KINOMEscan analysis relative to control; values are per cent of control.
The target in assay [3] is RAF proto-oncogene serine/threonine-protein kinase (Homo sapiens) (UniProt P04049). As to the kind of experiment: Inhibition of T7 bacteriophage fused human RAF1 at 10 uM by KINOMEscan analysis relative to control.
In assay [4] the target is Mitogen-activated protein kinase kinase kinase 4 (Homo sapiens) (UniProt Q9Y6R4). Description: Inhibition of T7 bacteriophage fused human MAP3K4 at 10 uM by KINOMEscan analysis relative to control.
Assay [5] has as its target Dual specificity mitogen-activated protein kinase kinase 2 (Homo sapiens) (UniProt P36507). As to the kind of experiment: Inhibition of T7 bacteriophage fused human MEK2 at 10 uM by KINOMEscan analysis relative to control; values are per cent of control.
Assay [6] concerns Receptor-type tyrosine-protein kinase FLT3 (Homo sapiens), P36888 [D835Y]. Description: Inhibition of T7 bacteriophage fused human FLT3 D835Y mutant at 10 uM by KINOMEscan analysis relative to control.
Assay [7] deals with RAC-alpha serine/threonine-protein kinase (Homo sapiens) (UniProt P31749). As to the kind of experiment: Inhibition of T7 bacteriophage fused human AKT1 at 10 uM by KINOMEscan analysis relative to control.
For assay [8], the target named is Mitogen-activated protein kinase 12 (Homo sapiens) (UniProt P53778). As to the kind of experiment: Inhibition of T7 bacteriophage fused human p38-gamma at 10 uM by KINOMEscan analysis relative to control.
Sequence of Mitogen-activated protein kinase 12 (Homo sapiens) (P53778 whole entry, the tested form may be a part): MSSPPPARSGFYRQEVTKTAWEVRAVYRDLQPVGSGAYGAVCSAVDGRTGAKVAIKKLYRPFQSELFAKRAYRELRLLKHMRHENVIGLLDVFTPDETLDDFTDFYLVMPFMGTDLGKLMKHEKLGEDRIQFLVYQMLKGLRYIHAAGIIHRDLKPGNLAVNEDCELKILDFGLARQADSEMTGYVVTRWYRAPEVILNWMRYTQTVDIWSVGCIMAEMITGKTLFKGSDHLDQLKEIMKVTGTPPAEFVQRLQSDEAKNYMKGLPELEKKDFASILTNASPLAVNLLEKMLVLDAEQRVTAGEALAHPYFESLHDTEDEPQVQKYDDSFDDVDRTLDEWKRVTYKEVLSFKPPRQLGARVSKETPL
Assay [9] deals with Cyclin-dependent kinase 2 (Homo sapiens) (UniProt P24941). As to the kind of experiment: Inhibition of T7 bacteriophage fused human CDK2 at 10 uM by KINOMEscan analysis relative to control.
The subject of assay [10] is Mast/stem cell growth factor receptor Kit (Homo sapiens), P10721 [V559D]. As to the kind of experiment: Inhibition of T7 bacteriophage fused human KIT V559D mutant at 10 uM by KINOMEscan analysis relative to control.
The target of assay [11] is Ankyrin repeat and protein kinase domain-containing protein 1 (Homo sapiens) (UniProt Q8NFD2). Description: Inhibition of T7 bacteriophage fused human ANKK1 at 10 uM by KINOMEscan analysis relative to control.
For assay [12], the target named is Casein kinase I isoform epsilon (Homo sapiens) (UniProt P49674). Description: Inhibition of T7 bacteriophage fused human CSNK1E at 10 uM by KINOMEscan analysis relative to control.
The target in assay [13] is Ephrin type-A receptor 2 (Homo sapiens) (UniProt P29317). Description: Inhibition of T7 bacteriophage fused human EPHA2 at 10 uM by KINOMEscan analysis relative to control; values are per cent of control.
Sequence of Ephrin type-A receptor 2 (Homo sapiens) (P29317 whole entry, the tested form may be a part): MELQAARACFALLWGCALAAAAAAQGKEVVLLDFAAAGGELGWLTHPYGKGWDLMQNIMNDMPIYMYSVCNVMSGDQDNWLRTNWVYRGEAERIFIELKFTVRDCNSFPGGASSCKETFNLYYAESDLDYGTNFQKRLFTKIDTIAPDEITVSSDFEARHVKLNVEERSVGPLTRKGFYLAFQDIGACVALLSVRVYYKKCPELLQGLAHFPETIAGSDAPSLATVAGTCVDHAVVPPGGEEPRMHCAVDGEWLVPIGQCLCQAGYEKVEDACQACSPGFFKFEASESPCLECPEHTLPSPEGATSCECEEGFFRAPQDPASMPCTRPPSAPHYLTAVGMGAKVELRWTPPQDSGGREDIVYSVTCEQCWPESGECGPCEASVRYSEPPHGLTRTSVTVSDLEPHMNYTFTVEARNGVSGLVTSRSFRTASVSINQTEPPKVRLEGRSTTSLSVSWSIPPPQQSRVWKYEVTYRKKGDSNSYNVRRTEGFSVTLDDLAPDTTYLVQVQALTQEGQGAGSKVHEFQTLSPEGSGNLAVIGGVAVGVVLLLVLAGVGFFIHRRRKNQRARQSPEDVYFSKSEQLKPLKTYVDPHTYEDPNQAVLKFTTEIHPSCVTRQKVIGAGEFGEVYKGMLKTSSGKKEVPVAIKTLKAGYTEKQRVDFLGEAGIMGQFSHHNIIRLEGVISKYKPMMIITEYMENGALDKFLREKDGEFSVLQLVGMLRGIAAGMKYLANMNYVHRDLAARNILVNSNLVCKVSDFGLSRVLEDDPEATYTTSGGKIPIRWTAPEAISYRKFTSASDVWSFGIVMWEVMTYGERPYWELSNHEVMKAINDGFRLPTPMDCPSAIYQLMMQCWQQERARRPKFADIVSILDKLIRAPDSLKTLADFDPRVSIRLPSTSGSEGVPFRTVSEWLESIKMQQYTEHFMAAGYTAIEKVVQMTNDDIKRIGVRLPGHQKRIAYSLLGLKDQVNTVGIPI
Assay [14] concerns the target Mitogen-activated protein kinase 9 (Homo sapiens) (UniProt P45984). As to the kind of experiment: Inhibition of T7 bacteriophage fused human JNK2 at 10 uM by KINOMEscan analysis relative to control.
In assay [15] the target is Serine/threonine-protein kinase MRCK gamma (Homo sapiens) (UniProt Q6DT37). As to the kind of experiment: Inhibition of T7 bacteriophage fused human DMPK2 at 10 uM by KINOMEscan analysis relative to control.
Assay [16] addresses Calcium/calmodulin-dependent protein kinase type II subunit alpha (Homo sapiens) (UniProt Q9UQM7). Description: Inhibition of T7 bacteriophage fused human CAMK2A at 10 uM by KINOMEscan analysis relative to control.
The test system of assay [17] is Receptor-type tyrosine-protein kinase FLT3 (Homo sapiens), P36888 [R834Q]. As to the kind of experiment: Inhibition of T7 bacteriophage fused human FLT3 R834Q mutant at 10 uM by KINOMEscan analysis relative to control.
In assay [18] the target is Epithelial discoidin domain-containing receptor 1 (Homo sapiens) (UniProt Q08345). Description: Inhibition of T7 bacteriophage fused human DDR1 at 10 uM by KINOMEscan analysis relative to control.
For assay [19], the target named is Fibroblast growth factor receptor 3 (Homo sapiens) (UniProt P22607). Description: Inhibition of T7 bacteriophage fused human FGFR3 at 10 uM by KINOMEscan analysis relative to control; values are per cent of control.
In assay [20] the test system is Mast/stem cell growth factor receptor Kit (Homo sapiens), P10721 [V559D,T670I]. As to the kind of experiment: Inhibition of T7 bacteriophage fused human KIT V559D/T670I mutant at 10 uM by KINOMEscan analysis relative to control; values are per cent of control.
In assay [21] the target is Calcium/calmodulin-dependent protein kinase type 1 (Homo sapiens) (UniProt Q14012). Description: Inhibition of T7 bacteriophage fused human CAMK1 at 10 uM by KINOMEscan analysis relative to control.
Sequence of Calcium/calmodulin-dependent protein kinase type 1 (Homo sapiens) (Q14012 whole entry, looked up, the tested form may be a part): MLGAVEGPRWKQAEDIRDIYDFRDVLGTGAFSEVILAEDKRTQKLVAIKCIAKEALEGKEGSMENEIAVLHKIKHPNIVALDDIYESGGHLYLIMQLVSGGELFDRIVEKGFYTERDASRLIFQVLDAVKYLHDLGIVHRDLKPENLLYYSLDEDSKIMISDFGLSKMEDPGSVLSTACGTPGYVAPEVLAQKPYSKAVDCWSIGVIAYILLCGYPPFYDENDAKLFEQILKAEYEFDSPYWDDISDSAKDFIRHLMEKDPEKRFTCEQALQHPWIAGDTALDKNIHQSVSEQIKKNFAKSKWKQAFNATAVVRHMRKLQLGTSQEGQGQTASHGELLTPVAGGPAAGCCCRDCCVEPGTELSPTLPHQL
For assay [22], the target named is Calcium/calmodulin-dependent protein kinase kinase 2 (Homo sapiens) (UniProt Q96RR4). As to the kind of experiment: Inhibition of T7 bacteriophage fused human CAMKK2 at 10 uM by KINOMEscan analysis relative to control.
For assay [23], the target named is Cyclin-dependent kinase 9 (Homo sapiens) (UniProt P50750). Description: Inhibition of T7 bacteriophage fused human CDK9 at 10 uM by KINOMEscan analysis relative to control.
Sequence of Cyclin-dependent kinase 9 (Homo sapiens) (P50750 whole entry, the tested form may be a part): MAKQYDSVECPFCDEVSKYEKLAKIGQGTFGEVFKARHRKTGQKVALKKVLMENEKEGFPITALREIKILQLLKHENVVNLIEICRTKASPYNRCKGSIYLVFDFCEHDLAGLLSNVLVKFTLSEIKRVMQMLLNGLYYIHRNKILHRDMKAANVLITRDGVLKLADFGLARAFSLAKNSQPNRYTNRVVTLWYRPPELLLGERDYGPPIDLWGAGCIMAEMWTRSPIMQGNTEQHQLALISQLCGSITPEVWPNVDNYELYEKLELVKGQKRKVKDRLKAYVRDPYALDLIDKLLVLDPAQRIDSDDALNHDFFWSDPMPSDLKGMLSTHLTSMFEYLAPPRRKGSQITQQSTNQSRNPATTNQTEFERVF
For assay [24], the target named is Mitogen-activated protein kinase kinase kinase kinase 5 (Homo sapiens) (UniProt Q9Y4K4). As to the kind of experiment: Inhibition of T7 bacteriophage fused human MAP4K5 at 10 uM by KINOMEscan analysis relative to control.
Assay [25] concerns the target Serine/threonine-protein kinase Nek7 (Homo sapiens) (UniProt Q8TDX7). As to the kind of experiment: Inhibition of T7 bacteriophage fused human NEK7 at 10 uM by KINOMEscan analysis relative to control.
In assay [26] the target is Tyrosine-protein kinase Mer (Homo sapiens) (UniProt Q12866). As to the kind of experiment: Inhibition of T7 bacteriophage fused human MERTK at 10 uM by KINOMEscan analysis relative to control.
Sequence of Tyrosine-protein kinase Mer (Homo sapiens) (Q12866 whole entry, the tested form may be a part): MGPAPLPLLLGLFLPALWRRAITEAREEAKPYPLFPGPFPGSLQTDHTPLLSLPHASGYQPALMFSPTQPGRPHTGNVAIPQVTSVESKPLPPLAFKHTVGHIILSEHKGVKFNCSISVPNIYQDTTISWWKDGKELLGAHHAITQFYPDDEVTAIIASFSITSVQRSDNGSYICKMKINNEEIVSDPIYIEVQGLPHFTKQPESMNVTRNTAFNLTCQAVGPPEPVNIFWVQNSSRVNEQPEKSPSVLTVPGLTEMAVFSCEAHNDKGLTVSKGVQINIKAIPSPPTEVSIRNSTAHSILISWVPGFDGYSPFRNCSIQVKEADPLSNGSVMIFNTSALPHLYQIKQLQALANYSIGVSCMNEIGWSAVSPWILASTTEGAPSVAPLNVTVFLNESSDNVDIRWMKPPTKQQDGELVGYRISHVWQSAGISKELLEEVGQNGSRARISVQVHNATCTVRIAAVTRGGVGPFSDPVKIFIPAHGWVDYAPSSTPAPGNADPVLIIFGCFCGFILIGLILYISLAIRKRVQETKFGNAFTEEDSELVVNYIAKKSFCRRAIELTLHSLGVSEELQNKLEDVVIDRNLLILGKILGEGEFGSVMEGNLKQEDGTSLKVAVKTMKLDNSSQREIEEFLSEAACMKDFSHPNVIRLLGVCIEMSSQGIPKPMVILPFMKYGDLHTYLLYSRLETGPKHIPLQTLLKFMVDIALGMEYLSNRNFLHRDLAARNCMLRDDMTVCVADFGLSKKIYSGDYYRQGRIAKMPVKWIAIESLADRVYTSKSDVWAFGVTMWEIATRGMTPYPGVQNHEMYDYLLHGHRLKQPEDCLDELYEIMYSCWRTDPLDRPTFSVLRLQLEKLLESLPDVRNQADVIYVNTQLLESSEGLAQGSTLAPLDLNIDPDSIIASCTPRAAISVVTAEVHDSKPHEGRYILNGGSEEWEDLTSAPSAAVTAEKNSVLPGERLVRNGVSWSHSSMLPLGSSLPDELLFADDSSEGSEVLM
In assay [27] the target is Protein kinase C iota type (Homo sapiens) (UniProt P41743). Description: Inhibition of T7 bacteriophage fused human PRKCI at 10 uM by KINOMEscan analysis relative to control.
The target of assay [28] is Homeodomain-interacting protein kinase 2 (Homo sapiens) (UniProt Q9H2X6). Description: Inhibition of T7 bacteriophage fused human HIPK2 at 10 uM by KINOMEscan analysis relative to control.
The target in assay [29] is ALK tyrosine kinase receptor (Homo sapiens) (UniProt Q9UM73). Description: Inhibition of T7 bacteriophage fused human ALK at 10 uM by KINOMEscan analysis relative to control.
The target of assay [30] is Cyclin-dependent kinase 13 (Homo sapiens) (UniProt Q14004). As to the kind of experiment: Inhibition of T7 bacteriophage fused human CDC2L5 at 10 uM by KINOMEscan analysis relative to control.
Sequence of Cyclin-dependent kinase 13 (Homo sapiens) (Q14004 whole entry, looked up, the tested form may be a part): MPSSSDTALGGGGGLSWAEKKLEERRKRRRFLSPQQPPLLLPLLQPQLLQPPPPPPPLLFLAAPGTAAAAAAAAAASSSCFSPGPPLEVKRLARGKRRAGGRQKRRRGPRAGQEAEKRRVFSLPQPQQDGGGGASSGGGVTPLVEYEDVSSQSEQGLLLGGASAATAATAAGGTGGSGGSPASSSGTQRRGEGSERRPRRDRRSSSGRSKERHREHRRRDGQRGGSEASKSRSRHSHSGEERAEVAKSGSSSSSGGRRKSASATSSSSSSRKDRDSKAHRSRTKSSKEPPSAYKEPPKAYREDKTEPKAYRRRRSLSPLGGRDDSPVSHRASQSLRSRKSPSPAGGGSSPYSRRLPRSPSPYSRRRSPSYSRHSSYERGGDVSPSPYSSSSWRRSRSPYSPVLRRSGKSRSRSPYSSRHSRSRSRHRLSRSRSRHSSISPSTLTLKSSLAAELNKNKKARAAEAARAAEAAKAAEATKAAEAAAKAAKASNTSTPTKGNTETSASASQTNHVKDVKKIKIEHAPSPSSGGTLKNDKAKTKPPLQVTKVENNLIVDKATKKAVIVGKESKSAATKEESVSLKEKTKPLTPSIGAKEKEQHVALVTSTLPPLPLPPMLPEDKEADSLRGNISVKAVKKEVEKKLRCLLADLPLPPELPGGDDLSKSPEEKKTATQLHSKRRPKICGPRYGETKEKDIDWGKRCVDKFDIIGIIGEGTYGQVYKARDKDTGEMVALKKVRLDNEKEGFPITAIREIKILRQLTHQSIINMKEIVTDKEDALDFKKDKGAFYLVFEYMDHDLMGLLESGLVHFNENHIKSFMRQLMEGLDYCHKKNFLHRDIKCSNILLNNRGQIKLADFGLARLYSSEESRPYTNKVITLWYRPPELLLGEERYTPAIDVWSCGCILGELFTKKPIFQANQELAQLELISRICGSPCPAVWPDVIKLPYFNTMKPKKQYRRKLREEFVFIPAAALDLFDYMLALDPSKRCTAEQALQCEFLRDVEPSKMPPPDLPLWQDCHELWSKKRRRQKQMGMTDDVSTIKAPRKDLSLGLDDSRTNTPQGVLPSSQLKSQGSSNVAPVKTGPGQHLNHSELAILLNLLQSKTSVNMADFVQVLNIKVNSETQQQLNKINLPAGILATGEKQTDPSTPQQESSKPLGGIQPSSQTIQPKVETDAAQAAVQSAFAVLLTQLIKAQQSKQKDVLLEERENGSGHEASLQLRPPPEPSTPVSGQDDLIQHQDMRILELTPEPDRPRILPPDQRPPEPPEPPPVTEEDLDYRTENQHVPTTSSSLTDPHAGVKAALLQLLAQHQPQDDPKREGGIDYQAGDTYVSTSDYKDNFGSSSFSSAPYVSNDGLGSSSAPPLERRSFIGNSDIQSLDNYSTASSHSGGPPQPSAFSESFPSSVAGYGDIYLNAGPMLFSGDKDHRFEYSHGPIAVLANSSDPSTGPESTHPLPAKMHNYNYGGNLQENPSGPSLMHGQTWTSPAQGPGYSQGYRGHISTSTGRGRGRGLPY

Sequence of Serine/threonine-protein kinase Nek7 (Homo sapiens) (Q8TDX7 whole entry, looked up, the tested form may be a part): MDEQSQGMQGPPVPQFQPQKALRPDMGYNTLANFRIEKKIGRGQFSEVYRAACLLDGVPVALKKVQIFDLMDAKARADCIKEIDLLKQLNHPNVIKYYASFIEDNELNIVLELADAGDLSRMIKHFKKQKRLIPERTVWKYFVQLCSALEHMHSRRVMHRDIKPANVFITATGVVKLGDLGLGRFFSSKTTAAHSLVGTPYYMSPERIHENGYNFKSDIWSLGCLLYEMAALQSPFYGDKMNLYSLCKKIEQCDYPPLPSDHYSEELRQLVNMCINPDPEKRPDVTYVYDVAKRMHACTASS

In the case of `COc1cc(C(=O)N2CCC(N3CCN(C)CC3)CC2)ccc1Nc1ncc2c(n1)N(C1CCCC1)c1ccccc1C(=O)N2C`, the inhibition in assay [1] is -0.1%.

As for `COc1cc(N2CCC(N3CCN(C)CC3)CC2)ccc1Nc1ncc2c(n1)N(C)c1ccccc1C(=O)N2C`, the residual activity was 28% in assay [2]; 99% in assay [5]; 92% in assay [13]; 80% in assay [19]; 81% in [20]. Further, the inhibition was found to be 100% in assay [3]; 100% in [4]; 100% in assay [6]; 79% in assay [7]; 76% in assay [8]; 100% in [9]. Further, the inhibition in [10] was found to be 100%; in assay [11], 100%; in assay [12], 95%; in assay [14], 94%; in [15], 100%; in [16] it was 21%. Also, the inhibition in assay [17] was found to be 100%; in assay [18], 100%; in assay [21], 55%; in assay [22] it was 31%; in assay [23], 100%; in assay [24], 100%. Moreover, the inhibition in assay [25] is 100%; in [26] it was 100%; in assay [27] it was 100%; in [28], 88%; in assay [29], 13%; in assay [30], 100%.
